Reference: US10123985B2, “Therapeutic strategies for treating mitochondrial disorders” (Whitehead Institute for Biomedical Research, priority 2015, dated 2018)
Entries after “also recorded” stand apart in the source; their conditions may differ.

Key:
143B CytB cells [1] = assay: Cell cycle distribution by propidium iodide flow cytometry; type: cell-based; conditions: 143B CytB cells, 100 μM adenine, 78 hours
Experimental: 143B CytB cells were incubated in untreated media or media containing AKB or 100 μM adenine for 78 hours before being washed with PBS, trypsinized, pelleted, and resuspended in 500 μL PBS. Cells were fixed by adding 4.5 mL 70% ethanol and incubated at 4° C. overnight. The following day cells were pelleted and resuspended in 1 mL PBS+0.1% (v/v) Triton X-100. RNase A and then propidium iodide (PI) were added to 0.2 mg/mL and 20 μg/mL, respectively. Samples were incubated at 37° C. for 15 minutes and filtered into a flow cytometry tube. DNA content was measured by flow cytometry (BD FACS Canto II) and analyzed (FACS Diva Software).

143B CytB cells [2] = assay: Proliferation assay of respiration-incompetent 143B CytB cybrid cells; type: cell-based; conditions: media supplemented with the substance; no pyruvate unless tested, uridine present
Experimental: FL5.12 cells were cultured in the same medium and supplemented with 5 μg/mL recombinant mouse IL-3 (R&D Systems). […] All cells incubated at 37° C. with 5% CO2.
Adherent cell lines growing in log phase were trypsinized, counted, and plated onto 6 well dishes (Corning) in 2 mL complete DMEM and incubated overnight. […] The following day, one plate of cells was counted to determine the initial cell count at the time of treatment. Cells were washed 2 times with 2 mL phosphate buffered saline (PBS) and 4 mL media premixed with the indicated treatments was added. FL5.12 cells, a suspension cell line, were washed 2 times in PBS and added directly to media containing the indicated treatments and 5 μg/mL recombinant mouse IL-3. Proliferation rate assay media was DMEM without pyruvate containing 10% dialyzed FBS, penicillin-streptomycin, and 0.1 mg/mL uridine, unless otherwise noted. […] Cells were counted using Cellometer Auto T4 Plus Cell Counter (Nexcelom Bioscience). Proliferation rate was determined using the following formula: Proliferation Rate (Doublings per day)=(log2(Final cell count (day 5)/Initial cell count (day 1))/4 (days)

Jurkat cells [3] = assay: [U-13C]-L-glutamine isotope tracing of aspartate in Jurkat cells; type: cell-based, human; conditions: phenformin (10 μM)
Experimental: (§1) LC/MS analyses were conducted on a QExactive benchtop orbitrap mass spectrometer equipped with an Ion Max source and a HESI II probe, which was coupled to a Dionex UltiMate 3000 UPLC system (Thermo Fisher Scientific, San Jose, Calif.). External mass calibration was performed using the standard calibration mixture every 7 days.
Polar metabolites were extracted using 1 ml of ice-cold 80% methanol with 10 ng/ml valine-d8 as an internal standard. After a 10 min vortex and centrifugation for 10 min at 4° C. at 10,000 g, samples were dried under nitrogen gas. Dried samples were stored at −80° C. and then resuspended in 100 μL water; 1 μl of each sample was injected onto a ZIC-pHILIC 2.1×150 mm (5 μm particle size) column (EMD Millipore). Buffer A was 20 mM ammonium carbonate, 0.1% ammonium hydroxide; buffer B was acetonitrile. […] Relative quantitation of polar metabolites was performed with XCalibur QuanBrowser 2.2 (Thermo Fisher Scientific) using a 5 ppm mass tolerance and referencing an in-house library of chemical standards.

Jurkat cells [4] = assay: Seahorse oxygen consumption of Jurkat cells; type: cell-based, human; conditions: phenformin (10 μM), wild type and GOT1 null
Experimental: Oxygen consumption of intact cells was measured using an XF24 Extracellular Flux Analyzer (Seahorse Bioscience). For Jurkat cells, seahorse plates were coated with cell TAK (BD, 0.02 mg/ml in […] NaHO3) for 20 minutes to increase adherence of suspension cells. 200,000 cells were then attached to the plate by centrifugation at 2,200 rpm without brakes for 5 min. RPMI 8226 (US biological #9011) assay media was used as previously described (Birsoy et al., 2014). For basal oxygen consumption measurements the cell number was used to normalize.

[5] = tested on: Raji lymphoma and KMS-26 multiple myeloma cells; type: cell-based, human; conditions: 5-day treatment
Experimental: […]. Media was changed 24 hours after transfection.

Jurkat cells [6] = assay: Proliferation assay (Cell Titer Glo, 5 days) of wild type and knock-out Jurkat cells; type: cell-based, human
Experimental: sgRNAs (oligonucleotide sequences are indicated above) were cloned into lentiCRISPR-v1 linearized with BsmBI by Gibson Assembly (NEB). sgRNA expressing vector along with lentiviral packaging vectors Delta-VPR and CMV VSVG were transfected into HEK-293T cells using the XTremeGene 9 transfection reagent (Roche). Similarly, for overexpression cell lines, cDNA vectors along with retroviral packaging vectors gag-pol and CMV VSV-G were transfected into HEK-293T cells. Media was changed 24 hours after transfection.

Jurkat cells [7] = assay: Metabolite profiling (LC/MS) of Jurkat cells; type: cell-based, human
Experimental: as §1
Polar metabolites were extracted using 1 ml of ice-cold 80% methanol with 10 ng/ml valine-d8 as an internal standard. After a 10 min vortex and centrifugation for 10 min at 4° C. at 10,000 g, samples were dried under nitrogen gas. Dried samples were stored at −80° C. and then resuspended in 100 μL water; 1 μl of each sample was injected onto a ZIC-pHILIC 2.1×150 mm (5 μm particle size) column (EMD Millipore). Buffer A was 20 mM ammonium carbonate, 0.1% ammonium hydroxide; buffer B was acetonitrile. The chromatographic gradient was run at a flow rate of 0.150 ml/min as follows: 0-20 min.: linear gradient from 80% to 20% B; 20-20.5 min.: linear gradient from 20% to 80% B; 20.5-28 min.: hold at 80% B. The mass spectrometer was operated in fullscan, polarity switching mode with the spray voltage set to 3.0 kV, the heated capillary held at 275° C., and the HESI probe held at 350° C. The sheath gas flow was set to 40 units, the auxiliary gas flow was set to 15 units, and the sweep gas flow was set to 1 unit. The MS data acquisition was performed in a range of 70-1000 m/z, with the resolution set at 70,000, the AGC target at 106, and the maximum injection time at 80 msec. Relative quantitation of polar metabolites was performed with XCalibur QuanBrowser 2.2 (Thermo Fisher Scientific) using a 5 ppm mass tolerance and referencing an in-house library of chemical standards.

[8] = GOT1-null Jurkat cells, 24-hour phenformin

Compound	Cell cycle distribution (DNA content) (143B CytB cells [1])	Proliferation rate of 143B CytB cells (143B CytB cells [2])	Aspartate synthesis from [U-13C]-L-glutamine (Jurkat cells [3]; GOT1-null Jurkat cells)	Aspartate synthesis from [U-13C]-L-glutamine (Jurkat cells [3]; wild type Jurkat cells)	Oxygen consumption (respiration) of Jurkat cells (Jurkat cells [4])	Sensitivity of GOT1-null versus wild type Raji and KMS-26 cells to phenformin [5]	Proliferation of Jurkat cells (Jurkat cells [6]; 0.5 μM phenformin, pyruvate-free RPMI)	Viability and proliferation of GOT1-null versus wild type Jurkat cells (Jurkat cells [6]; higher concentrations of phenformin, 5 days)	Proliferation of GOT1-null versus wild type Jurkat cells (Jurkat cells [6]; low doses of phenformin, 5 days)	Other amino acids (Jurkat cells [7]; [8])	Reduction of cellular aspartate (Jurkat cells [7]; [8])	Aspartate level (Jurkat cells [7]; MDH1-null Jurkat cells, phenformin (10 μM) 24 hours)	Fall of aspartate levels (Jurkat cells [7]; wild type Jurkat cells, 24-hour phenformin)
Nc1ncnc2nc[nH]c12 [adenine, reference compound]	alleviated the slight accumulation of cells at the S/G2 transition	restored proliferation for one doubling											
[H]/N=C(/N)N/C(=N/[H])NCCc1ccccc1 [phenformin, reference compound]			almost no generation of aspartate from labeled glutamine	aspartate is mainly synthesized by reductive metabolism of glutamine in a GOT1-dependent manner; also recorded: aspartate synthesis dropped, and what remained came primarily from reductive glutamine metabolism with almost no contribution from the oxidative pathway	suppressed respiration as measured by oxygen consumption; also recorded: inhibits oxygen consumption of wild type and GOT1 null Jurkat cells	GOT1 loss sensitizes various human cell types to phenformin treatment; also recorded: far more sensitive to phenformin than their wild type counterparts	only mildly slowed proliferation	GOT1-null cells die; also recorded: GOT1-null cells arrested and died, while the wild type counterparts did not	inhibited the proliferation of GOT1-null cells to a much greater extent than that of wild type cells	without much effect on other amino acids	~30 fold	dropped to the same level as it did in wild type cells	~3 fold
